Literature values as cited in EP2792015B1, “HIGH SPECIFIC-ENERGY LI/02-CO2 BATTERY” (Robert Bosch GmbH, priority 2011, dated 2013).
Values after ≈ are worked out from the molar mass of the structure shown. Read-outs that look alike come from different tables or passages of the source.

Details: 1 atmosphere and 25°C

Question: For `O=O` [O2, oxygen], which “Solubility” value (in H2O) is on record?
Answer: Its value is 8.3 µg/mL (≈ 0.259 mM).

Question: And the “Solubility” value (in propylene carbonate)?
Answer: The value was 110 µg/mL (≈ 3.44 mM).

Question: For `O=C=O` [CO2, carbon dioxide], which “Solubility” value (in H2O) is on record?
Answer: Its value is 1450 µg/mL (≈ 32.9 mM).

Question: What about the “Solubility” value (in propylene carbonate) of the same molecule?
Answer: Its value is 6115 µg/mL (≈ 139 mM).
